Measurements: patent US20230302150A1, “ANTIBODY-TLR AGONIST CONJUGATES, METHODS AND USES THEREOF” (Ambrx, Inc., priority 2020, published 2023)
Like-named read-outs stand apart in the source and are kept apart here.

Biological target: T1, hTLR7 (Homo sapiens, UniProt Q9NYK1)
T1 construct: expressed in transfected cells; host or cells: HEK-Blue hTLR7 reporter cell line
T1 sequence (Q9NYK1 27-1049): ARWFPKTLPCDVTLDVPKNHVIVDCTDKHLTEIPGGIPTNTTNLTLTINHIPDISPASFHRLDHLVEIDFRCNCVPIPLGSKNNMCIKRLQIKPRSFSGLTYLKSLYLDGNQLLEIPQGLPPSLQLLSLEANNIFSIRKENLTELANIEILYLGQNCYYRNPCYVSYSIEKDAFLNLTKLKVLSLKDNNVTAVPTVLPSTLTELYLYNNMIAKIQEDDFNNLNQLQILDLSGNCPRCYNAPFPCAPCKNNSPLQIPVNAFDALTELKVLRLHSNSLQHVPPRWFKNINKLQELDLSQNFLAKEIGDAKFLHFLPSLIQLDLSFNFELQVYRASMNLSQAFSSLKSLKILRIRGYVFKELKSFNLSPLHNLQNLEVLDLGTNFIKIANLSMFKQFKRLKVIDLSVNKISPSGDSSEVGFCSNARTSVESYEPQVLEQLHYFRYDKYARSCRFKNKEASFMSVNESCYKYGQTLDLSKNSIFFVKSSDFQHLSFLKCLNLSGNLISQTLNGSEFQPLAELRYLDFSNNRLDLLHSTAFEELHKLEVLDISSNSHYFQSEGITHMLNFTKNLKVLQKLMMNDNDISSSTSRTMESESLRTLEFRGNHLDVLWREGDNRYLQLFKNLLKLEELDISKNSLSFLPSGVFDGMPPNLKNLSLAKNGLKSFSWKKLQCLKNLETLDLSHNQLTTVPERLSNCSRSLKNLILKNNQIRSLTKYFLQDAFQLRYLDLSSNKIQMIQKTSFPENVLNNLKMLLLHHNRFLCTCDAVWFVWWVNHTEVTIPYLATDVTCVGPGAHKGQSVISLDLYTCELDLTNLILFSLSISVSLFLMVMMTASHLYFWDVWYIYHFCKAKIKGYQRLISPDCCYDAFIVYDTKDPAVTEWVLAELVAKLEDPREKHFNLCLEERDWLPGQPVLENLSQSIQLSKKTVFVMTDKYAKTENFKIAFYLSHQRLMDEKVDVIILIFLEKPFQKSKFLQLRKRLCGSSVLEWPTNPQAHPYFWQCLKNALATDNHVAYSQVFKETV
Experiment: HEK-Blue hTLR7 reporter assay (NF-kB-induced SEAP, Quanti-Blue)
Format: cell-based
Method: HEK-Blue™ hTLR7 cells were incubated in HEK-Blue™ Detection medium and stimulated with increasing concentrations of TLR7 or TLR8 or TLR7/8 agonists. […] The EC50 was determined from dose-response curve using Prism Software.

[1] = Table 19, TLR7, drug-linkers with PEG shielding, read-out: EC50
[2] = Table 12, TLR7 agonists attached to a linker, read-out: TLR Agonist Payload + Linkers EC50
[3] = Table 15, drug linker, read-out: TLR Agonist + Linker (DL) - EC50
[4] = Table 15, pAF containing final metabolite, read-out: TLR Agonist + Linker + nnAA (DL-pAF) - EC50
[5] = Table 18, TLR7, PEG shielding, read-out: EC50
[6] = Core 3 compounds, assay not given, read-out: EC50

CCCCOc1nc(NC(C)=O)c2[nH]c(=O)n(Cc3ccc(CN4CCC(C5CCNCC5)CC4)cc3)c2n1 [AXC-980, N-(9-(4-(4,4′-bipiperidin-1-ylmethyl)benzyl)-2-butoxy-8-oxo-8,9-dihydro-7H-purin-6-yl)acetamide]
EC50 [1]: 29.6 nM

CCCCOc1nc(N)c2[nH]c(=O)n(Cc3ccc(CN4CCC(CCNC(=O)[C@H](CCCCNC(=O)CON)NC(=O)CCCc5ccccc5)CC4)cc3)c2n1 [AXC-942, (S)—N-(2-(1-(4-((6-amino-2-butoxy-8-oxo-7,8-dihydro-9H-purin-9-yl)methyl)benzyl)piperidin-4-yl)ethyl)-6-(2-(aminooxy)acetamido)-2-(4-phenylbutanamido)hexanamide]
EC50 [1]: 387 nM

CCCCOc1nc(N)c2[nH]c(=O)n(Cc3ccc(CN4CCC(CCNC(=O)[C@H](CCCCNC(=O)CCCC(=O)NCCOCCOCCOCCOCCC(=O)NC(COCCC(=O)NCCOCCOCCOCCOCCOCCOCCOCCOC)(COCCC(=O)NCCOCCOCCOCCOCCOCCOCCOCCOC)COCCC(=O)NCCOCCOCCOCCOCCOCCOCCOCCOC)NC(=O)CON)CC4)cc3)c2n1 [AXC-952, (S)—N-(2-(1-(4-((6-amino-2-butoxy-8-oxo-7,8-dihydro-9H-purin-9-yl)methyl)benzyl)piperidin-4-yl)ethyl)-2-(2-(aminooxy)acetamido)-6-(dPEG4-(m-dPEG8)3)hexanamide]
EC50 [1]: 1020 nM

CCCCOc1nc(N)c2[nH]c(=O)n(Cc3ccc(CN4CCC(CCNC(=O)C(C)(C)NC)CC4)cc3)c2n1 [AXC-884, N-(2-(1-(4-((6-amino-2-butoxy-8-oxo-7H-purin-9(8H)-yl)methyl)benzyl)piperidin-4-yl)ethyl)-2-methyl-2-(methylamino)propanamide]
EC50 (Table 11, TLR7 activities, read-out: EC50): 71.3 nM

CCCCOc1nc(NC(=O)CCOCCOCCOC)c2[nH]c(=O)n(Cc3ccc(CN4CCC(CCN)CC4)cc3)c2n1 [AXC-982, N-(9-(4-((4-(2-aminoethyl)piperidin-1-yl)methyl)benzyl)-2-butoxy-8-oxo-8,9-dihydro-7H-purin-6-yl)-3-(2-(2-methoxyethoxy)ethoxy)propanamide]
EC50 [1]: 19.1 nM

CCCCOc1nc(N)c2[nH]c(=O)n(Cc3ccc(N4CCC(CCNC(=O)CCOCCON)CC4)nc3)c2n1 [AXC-876, N-(2-(1-(5-((6-amino-2-butoxy-8-oxo-7H-purin-9(8H)-yl)methyl)pyridin-2-yl)piperidin-4-yl)ethyl)-3-(2-(aminooxy)ethoxy)propanamide]
EC50 [2]: 362 nM | EC50 [3]: 362 nM | EC50 [4]: 245 nM

CCCCc1nc2c(N)nc3ccccc3c2n1CCCCNC(=O)c1ccc(N)c(OC)c1 [AXC-725, 4-amino-N-(4-(4-amino-2-butyl-1H-imidazo[4,5-c]quinolin-1-yl)butyl)-3-methoxybenzamide]
EC50 (Table 10, read-out: TLR7 EC50): 249 nM

CCCCOc1nc(N)c2[nH]c(=O)n(Cc3ccc(CN4CCC(CCNC(=O)[C@@H](N)CCCCNC(=O)CON)CC4)cc3)c2n1 [AXC-913, (S)-2-amino-N-(2-(1-(4-((6-amino-2-butoxy-8-oxo-7,8-dihydro-9H-purin-9-yl)methyl)benzyl)piperidin-4-yl)ethyl)-6-(2-(aminooxy)acetamido)hexanamide]
EC50 [5]: 29.6 nM

CCCCOc1cc2c([nH]c(=O)n2Cc2ccc(CN3CCC(CCNC(=O)c4ccc(N)cc4)CC3)cc2)c(N)n1 [AXC-905, 4-amino-N-(2-(1-(4-((4-amino-6-butoxy-2-oxo-2,3-dihydro-1H-imidazo[4,5-c]pyridin-1-yl)methyl)benzyl)piperidin-4-yl)ethyl)benzamidebenzamide]
EC50 (Table 14, read-out: TLR7 EC50): 2.6 nM

CCCCOc1nc(N)c2[nH]c(=O)n(Cc3ccc(CN4CCC(CCNC(=O)CCOCCON)CC4)cc3)c2n1 [AXC-880, N-(2-(1-(4-((6-amino-2-butoxy-8-oxo-7H-purin-9(8H)-yl)methyl)benzyl)piperidin-4-yl)ethyl)-3-(2-(aminooxy)ethoxy)propenamide]
EC50 [2]: 410 nM | EC50 [3]: 410 nM | EC50 [4]: 167 nM

CCCCNc1nc(N)c2[nH]c(=O)n(Cc3ccc(NCCN(C)CCNC(=O)CCOCCOCCOCCOCCON)nc3)c2n1 [AXC-869, NH2O-PEG3-Pr-(6-amino-9-((6-(2-((2-aminoethyl)(methyl)amino)ethylamino)pyridin-3-yl)methyl)-2-(butylamino)-7H-purin-8(9H)-one)acetamide]
EC50 [2]: > 10000 nM

NCCC1CCN(Cc2ccc(Cn3ccc4c5nc(N)ncc5ccc43)cc2)CC1 [AXC-969, 7-(4-((4-(2-aminoethyl)piperidin-1-yl)methyl)benzyl)-7H-pyrrolo[2,3-h]quinazolin-2-amine]
EC50 [6]: > 10000 nM

CCCCOc1nc(NC(C)=O)c2[nH]c(=O)n(Cc3ccc(CN4CCC(CCNC(=O)CON)CC4)cc3)c2n1 [AXC-966, N-(2-(1-(4-((6-acetamido-2-butoxy-8-oxo-7,8-dihydro-9H-purin-9-yl)methyl)benzyl)piperidin-4-yl)ethyl)-2-(aminooxy)acetamide]
EC50 [1]: 65.5 nM

CCCCOc1nc(N)c2[nH]c(=O)n(Cc3ccc(CN4CCC(CCNC(=O)[C@H](CCCCNC(=O)CON)NC(=O)[C@H](C)NC(=O)[C@@H](N)C(C)C)CC4)cc3)c2n1 [AXC-923, (S)—N-(2-(1-(4-((6-amino-2-butoxy-8-oxo-7,8-dihydro-9H-purin-9-yl)methyl)benzyl)piperidin-4-yl)ethyl)-2-((S)-2-((S)-2-amino-3-methylbutanamido)propanamido)-6-(2-(aminooxy)acetamido)hexanamide]
EC50 [5]: 434 nM

CCCCNc1nc(N)c2[nH]c(=O)n(Cc3ccc(N4CCN(CCNC(=O)CON)CC4)nc3)c2n1 [AXC-867]
EC50 [2]: 829 nM | EC50 [3]: 829 nM | EC50 [4]: 283 nM

CCCCOc1nc(N)c2[nH]c(=O)n(Cc3ccc(CN4CCC(CCNC(=O)[C@@H](N)CCCCn5cc(CON)nn5)CC4)cc3)c2n1 [AXC-935, (S)-2-amino-N-(2-(1-(4-((6-amino-2-butoxy-8-oxo-7,8-dihydro-9H-purin-9-yl)methyl)benzyl)piperidin-4-yl)ethyl)-6-(4-((aminooxy)methyl)-1H-1,2,3-triazol-1-yl)hexanamide]
EC50 [1]: 40 nM

CC(C)(C)OC(=O)NCCC1CCN(Cc2ccc(Cn3ccc4c5nc(N)ncc5ccc43)cc2)CC1 [AXC-968, tert-butyl (2-(1-(4-((2-amino-7H-pyrrolo[2,3-h]quinazolin-7-yl)methyl)benzyl)piperidin-4-yl)ethyl)carbamate]
EC50 [6]: > 10000 nM

CCCCOc1nc(N)c2[nH]c(=O)n(Cc3ccc(CN4CCC(CCNC(=O)[C@@H](CCCCNC(=O)CCOCCOCCOCCOCCOCCOCCOCCOCCOCCOCCOCCOCCOCCOCCOCCOCCOCCOCCOCCOCCOCCOCCOCCOC)NC(=O)CON)CC4)cc3)c2n1 [AXC-959, (R)—N-(2-(1-(4-((6-amino-2-butoxy-8-oxo-7,8-dihydro-9H-purin-9-yl)methyl)benzyl)piperidin-4-yl)ethyl)-2-(2-(aminooxy)acetamido)-6-PEG24-amidohexanamide]
EC50 [1]: 551 nM

CCCCOc1nc(NC(C)=O)c2[nH]c(=O)n(Cc3ccc(CN4CCC(C5CCN(C(=O)CON)CC5)CC4)cc3)c2n1 [AXC-981, N-(9-(4-((1′-(2-(aminooxy)acetyl)-4,4′-bipiperidin-1-yl)methyl)benzyl)-2-butoxy-8-oxo-8,9-dihydro-7H-purin-6-yl)acetamide]
EC50 [1]: 10.1 nM

CCCCc1nc2c(N)nc3cccnc3c2n1CCCCNC(=O)c1ccc(N(C)C)cc1 [AXC-743, N-(4-(4-amino-2-butyl-1H-imidazo[4,5-c][1,5]naphthyridin-1-yl)butyl)-4-(dimethylamino)benzamide]
EC50 (Table 10, read-out: TLR7 EC50): 56.1 nM
